{
  "source": "patent US12714736B2",
  "about": "“Methods for preventing an immunoglobulin e-related disease” (MY-OR DIAGNOSTICS LTD., priority 2019, dated 2026)",
  "tested_on": "Staphylococcus epidermidis",
  "assay": "Anti/pro microbial study: Staphylococcus epidermidis cultured on a plate comprising acemannan",
  "type": "cell-based",
  "settings": "culture plate, Acemannan 0.2% (w/w) vs control (double-distilled water), FIG. 1",
  "protocol": "FIG. 1 includes a micrograph of culture plate of Staphylococcus epidermidis. The bacteria were cultured on the plate in presence of either Acemannan (0.2% (w/w)) or control (double-distilled water).\nThe inventors examined the activity of a composition comprising acemannan. The inventors performed an anti/pro microbial study, by culturing Staphylococcus epidermidis on a plate comprising acemannan. S. epidermidis is a skin resident who is known to play an important role in immune training and pathogen resistance. […] This supports the inventors' notion that the herein disclosed cream supports healthy colonization of the skin microbiome.",
  "data": [
    {"substance": "Acemannan", "values": [
      {"measurement": "growth of S. epidermidis", "result": "Comparable levels of bacterial growth"},
      {"measurement": "growth of S. epidermidis", "setting": "listed as acemannan", "result": "did not affect the growth of S. epidermidis"}
    ]}
  ]
}
